This passage reports IC50 results from patent US20090131483A1, “2-PYRIDINE DERIVATIVES AS INHIBITORS OF NEUTROPHILE ELASTASE” (priority 2005, published 2009).

As usually defined, the IC50 is the concentration needed to halve the response being measured.

The assay has as its target T1, Human Neutrophil Elastase (HNE) (Homo sapiens, UniProt P08246).
T1 construct: Human Neutrophil Elastase (HNE) purified from serum; purchased Calbiochem 324681; host or cells: purified from serum (so in the source)
T1 sequence (P08246 30-267): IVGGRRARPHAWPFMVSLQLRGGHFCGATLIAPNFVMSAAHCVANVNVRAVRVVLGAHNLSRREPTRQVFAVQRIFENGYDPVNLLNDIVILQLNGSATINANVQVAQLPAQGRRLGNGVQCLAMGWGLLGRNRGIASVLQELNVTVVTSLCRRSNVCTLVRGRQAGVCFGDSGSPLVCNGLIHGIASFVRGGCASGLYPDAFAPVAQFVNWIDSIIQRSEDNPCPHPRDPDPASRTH
In words: Human Neutrophil Elastase Quenched-FRET Assay. The assay is classed as biochemical. To be noted: HNE purified from serum 1.7 nM, substrate MeOSuc-AAPV-AMC 100 μM, pH 7.5, 15 min pre-incubation, 30 min incubation at room temperature; read-out: Inhibition of Human Neutrophil Elastase IC50. Here is the method:
Human Neutrophil Elastase Quenched-FRET Assay
The assay uses Human Neutrophil Elastase (HNE) purified from serum (Calbiochem art. 324681; Ref. Baugh, R. J. et al., 1976, Biochemistry. 15, 836-841). H was stored in 50 mM sodium acetate (NaOAc), 200 mM sodium chloride (NaCl), pH 5.5 with added 30% glycerol at −20° C. The protease substrate used was Elastase Substrate V Fluorogenic, MeOSuc-AAPV-AMC (Calbiochem art. 324740; Ref. Castillo, M. J. et al., 1979, Anal. Biochem. 99, 53-64). The substrate was stored in dimethyl sulphoxide (DMSO) at −20° C. The assay additions were as follows: Test compounds and controls were added to black 96-well flat-bottom plates (Greiner 655076), 1 μL in 100% DMSO, followed by 30 μL HNE in assay buffer with 0.01% Triton (trade mark) X-100 detergent. The assay buffer constitution was: 100 mM Tris(hydroxymethyl)aminomethane (TRIS) (pH 7.5) and 500 mM NaCl. The enzyme and the compounds were incubated at room temperature for 15 minutes. Then 30 μl substrate in assay buffer was added. The assay was incubated for 30 minutes at room temperature. The concentrations of HNE enzyme and substrate during the incubation were 1.7 nM and 100 μM, respectively. The assay was then stopped by adding 60 μl stop solution (140 mM acetic acid, 200 mM sodium monochloroacetate, 60 mM sodium acetate, pH 4.3). Fluorescence was measured on a Wallac 1420 Victor 2 instrument at settings: Excitation 380 nm, Emission 460 nm. IC50 values were determined using Xlfit curve fitting using model 205.

Turning to `Cc1c(-c2ccnn2C)cc(C(=O)NCc2cc(CO)no2)c(=O)n1-c1cccc(C(F)(F)F)c1` [Example 4, N-{[3-(Hydroxymethyl)isoxazol-5-yl]methyl}-6-methyl-5-(1-methyl-1H-pyrazol-5-yl)-2-oxo-1-[3-(trifluoromethyl)phenyl]1,2-dihydropyridine-3-carboxamide], the half-maximal inhibitory concentration (IC50) turned out to be 31 nM. On to `CCc1cc(C(=O)NCc2cc(CO)no2)c(=O)n(-c2cccc(C(F)(F)F)c2)c1C` [Example 6, 5-Ethyl-N-{[3-(hydroxymethyl)isoxazol-5-yl]methyl}-6-methyl-2-oxo-1-[3-(trifluoromethyl)phenyl]-1,2-dihydropyridine-3-carboxamide], for which the IC50 came to 45 nM. The result for `Cc1c(C2CC2)cc(C(=O)NCc2cc(CO)no2)c(=O)n1-c1cccc(C(F)(F)F)c1` [Example 7, 5-Cyclopropyl-N-{[3-(hydroxymethyl)isoxazol-5-yl]methyl}-6-methyl-2-oxo-1-[3-(trifluoromethyl)phenyl]-1,2-dihydropyridine-3-carboxamide] reads 48 nM; that for `Cc1c(C#CCO)cc(C(=O)NCc2ccc(S(C)(=O)=O)cc2)c(=O)n1-c1cccc(C(F)(F)F)c1` [Example 20, 5-(3-Hydroxyprop-1-yn-1-yl)-6-methyl-N-[4-(methylsulfonyl)benzyl]-2-oxo-1-[3-(trifluoromethyl)phenyl]-1,2-dihydropyridine-3-carboxamide], 23 nM. Under `Cc1c(CS(C)(=O)=O)cc(C(=O)NCc2ccc(S(=O)(=O)C3CC3)cc2)c(=O)n1-c1cccc(C(F)(F)F)c1` [Example 23, N-[4-(Cyclopropylsulfonyl)benzyl]-6-methyl-5-[(methylsulfonyl)methyl]-2-oxo-1-[3-(trifluoromethyl)phenyl]-1,2-dihydropyridine-3-carboxamide] stands 61 nM.
